What was measured:
[1] = Bioavailability in cannula implanted rat at 5 mg/kg administered through oral gavage after 24 hrs by LC-MS/MS analysis; type: ADME, organism-based; settings: in vivo
[2] = tested on: Human immunodeficiency virus 1; experiment: Antiviral activity against wild type HIV1 NL4-3 habouring Gag protein delta V370 infected in human MT2 cells after 4 to 5 days by dual-luciferase reporter gene assay; type: functional, organism-based; settings: Human immunodeficiency virus 1, NL4-3, MT2
[3] = tested on: Human immunodeficiency virus 1; experiment: Antiviral activity against wild type HIV1 NL4-3 habouring Gag protein V370A mutant infected in human MT2 cells after 4 to 5 days by dual-luciferase reporter gene assay; type: functional, organism-based; settings: Human immunodeficiency virus 1, NL4-3, MT2
[4] = tested on: Human immunodeficiency virus 1; experiment: Antiviral activity against wild type HIV1 NL4-3 infected in human MT2 cells after 4 to 5 days by dual-luciferase reporter gene assay; type: functional, organism-based; settings: Human immunodeficiency virus 1, NL4-3, MT2
[5] = Cytotoxicity against human MT2 cells; type: cell-based
[6] = tested on: Human immunodeficiency virus 1; experiment: Antiviral activity against wild type HIV1 NL4-3 infected in human MT2 cells after 4 to 5 days by dual-luciferase reporter gene assay in presence of human serum albumin; type: functional, organism-based; settings: Human immunodeficiency virus 1, NL4-3, MT2
[7] = AUC (0 to 6 hrs) in cannula implanted rat at 5 mg/kg administered through oral gavage after 24 hrs by LC-MS/MS analysis; type: ADME, organism-based; parameters: dose 5 mg/kg, time < 6 hr, route oral; settings: in vivo
[8] = Metabolic stability in rat liver microsomes at 0.5 uM by LC-MS/MS analysis in presence of NADPH; type: ADME
[9] = Metabolic stability in human liver microsomes at 0.5 uM by LC-MS/MS analysis in presence of NADPH; type: ADME
[10] = Plasma clearance in cannula implanted rat at 1 mg/kg, iv by LC-MS/MS analysis; type: ADME, organism-based
[11] = Cmax in cannula implanted rat at 5 mg/kg administered through oral gavage after 24 hrs by LC-MS/MS analysis; type: ADME, organism-based; parameters: dose 5 mg/kg, route oral; settings: in vivo
[12] = tested on: Human immunodeficiency virus 1; experiment: Antiviral activity against wild type BVM-resistant HIV1 NL4-3 habouring Gag protein T371A mutant infected in human MT2 cells after 4 to 5 days by dual-luciferase reporter gene assay; type: functional, organism-based; settings: Human immunodeficiency virus 1, NL4-3, MT2

SMILES | bioavailability [1] [%] | EC50 [2] [nM] | EC50 [3] [nM] | EC50 [4] [nM] | CC50 [5] [nM] | EC50 [6] [nM] | AUC(0-t) at 6 h [7] [µM·h] | half-life at 0.5 µM [8] [h] | half-life at 0.5 µM [9] [h] | clearance [10] [mL/min/kg] | Cmax [11] [nM] | EC50 [12] [nM]
C=C(C)[C@@H]1CC[C@]2(C(=O)O)CC[C@]3(C)[C@H](CC[C@@H]4[C@@]5(C)CC=C(c6ccc(C(=O)O)cc6)C(C)(C)[C@@H]5CC[C@]43C)[C@@H]12 | 4 | > 6000 | – | – | – | – | – | – | – | – | – | –
C=C(C)[C@@H]1CC[C@]2(C(=O)NC)CC[C@]3(C)[C@H](CC[C@@H]4[C@@]5(C)CC=C(c6ccc(C(=O)O)cc6)C(C)(C)[C@@H]5CC[C@]43C)[C@@H]12 | – | – | 252 | 10 | 7000 | 28 | – | – | – | – | – | –
C=C(C)[C@@H]1CC[C@]2(C(=O)NCCN)CC[C@]3(C)[C@H](CC[C@@H]4[C@@]5(C)CC=C(c6ccc(C(=O)O)cc6)C(C)(C)[C@@H]5CC[C@]43C)[C@@H]12 | – | 702 | 7 | 3 | 4000 | – | – | – | – | – | – | –
C=C(C)[C@@H]1CC[C@]2(C(=O)NCCN(CC)CC(=O)O)CC[C@]3(C)[C@H](CC[C@@H]4[C@@]5(C)CC=C(c6ccc(C(=O)O)cc6)C(C)(C)[C@@H]5CC[C@]43C)[C@@H]12 | – | 64 | 9 | 3 | 17000 | – | 0.22 | > 2 | > 2 | 26.7 | – | –
C=C(C)[C@@H]1CC[C@]2(C(=O)NCC(=O)O)CC[C@]3(C)[C@H](CC[C@@H]4[C@@]5(C)CC=C(c6ccc(C(=O)O)cc6)C(C)(C)[C@@H]5CC[C@]43C)[C@@H]12 | – | > 2000 | > 2000 | 106 | > 50000 | – | – | – | – | – | – | –
C=C(C)[C@@H]1CC[C@]2(C(=O)NS(=O)(=O)C3CC3)CC[C@]3(C)[C@H](CC[C@@H]4[C@@]5(C)CC=C(c6ccc(C(=O)O)cc6)C(C)(C)[C@@H]5CC[C@]43C)[C@@H]12 | – | 1190 | 67 | 59 | 18000 | 166 | – | – | – | – | – | –
C=C(C)[C@@H]1CC[C@]2(C(=O)NCCC(C)C)CC[C@]3(C)[C@H](CC[C@@H]4[C@@]5(C)CC=C(c6ccc(C(=O)O)cc6)C(C)(C)[C@@H]5CC[C@]43C)[C@@H]12 | – | 1610 | 101 | 47 | 11000 | – | 1.58 | – | – | 0.6 | 731 | –
C=C(C)[C@@H]1CC[C@]2(C(=O)N[C@@H](CN(C)C)C(=O)O)CC[C@]3(C)[C@H](CC[C@@H]4[C@@]5(C)CC=C(c6ccc(C(=O)O)cc6)C(C)(C)[C@@H]5CC[C@]43C)[C@@H]12 | – | > 160 | 772 | 46 | 25000 | – | – | – | – | – | – | –
C=C(C)[C@@H]1CC[C@]2(C(=O)NCCNCC(=O)O)CC[C@]3(C)[C@H](CC[C@@H]4[C@@]5(C)CC=C(c6ccc(C(=O)O)cc6)C(C)(C)[C@@H]5CC[C@]43C)[C@@H]12 | – | 61 | 15 | 42 | > 2000 | – | – | – | – | – | – | –
C=C(C)[C@@H]1CC[C@]2(C(=O)NCc3nccs3)CC[C@]3(C)[C@H](CC[C@@H]4[C@@]5(C)CC=C(c6ccc(C(=O)O)cc6)C(C)(C)[C@@H]5CC[C@]43C)[C@@H]12 | – | 690 | 28 | 15 | 6000 | – | – | – | – | – | – | –
C=C(C)[C@@H]1CC[C@]2(C(=O)NCCN(CC)CCC(=O)O)CC[C@]3(C)[C@H](CC[C@@H]4[C@@]5(C)CC=C(c6ccc(C(=O)O)cc6)C(C)(C)[C@@H]5CC[C@]43C)[C@@H]12 | – | 119 | 6 | 2 | > 17000 | – | – | – | – | – | – | –
C=C(C)[C@@H]1CC[C@]2(C(=O)NCCN(CC)CC)CC[C@]3(C)[C@H](CC[C@@H]4[C@@]5(C)CC=C(c6ccc(C(=O)O)cc6)C(C)(C)[C@@H]5CC[C@]43C)[C@@H]12 | – | 39 | 7 | 2 | 33000 | – | 0.809 | – | – | 3.3 | 229 | –
C=C(C)[C@@H]1CC[C@]2(C(=O)NCCN(C)C(C)=O)CC[C@]3(C)[C@H](CC[C@@H]4[C@@]5(C)CC=C(c6ccc(C(=O)O)cc6)C(C)(C)[C@@H]5CC[C@]43C)[C@@H]12 | – | 224 | 2 | 3 | 9000 | – | – | – | – | – | – | –
C=C(C)[C@@H]1CC[C@]2(C(=O)NCc3ccccn3)CC[C@]3(C)[C@H](CC[C@@H]4[C@@]5(C)CC=C(c6ccc(C(=O)O)cc6)C(C)(C)[C@@H]5CC[C@]43C)[C@@H]12 | – | – | 31 | 5 | 1000 | 9 | – | – | – | – | – | –
C=C(C)[C@@H]1CC[C@]2(C(=O)NS(C)(=O)=O)CC[C@]3(C)[C@H](CC[C@@H]4[C@@]5(C)CC=C(c6ccc(C(=O)O)cc6)C(C)(C)[C@@H]5CC[C@]43C)[C@@H]12 | – | – | 282 | 47 | 16000 | 1520 | – | – | – | – | – | –
C=C(C)[C@@H]1CC[C@]2(C(=O)NCCNC(C)=O)CC[C@]3(C)[C@H](CC[C@@H]4[C@@]5(C)CC=C(c6ccc(C(=O)O)cc6)C(C)(C)[C@@H]5CC[C@]43C)[C@@H]12 | – | 361 | 24 | 5 | 12000 | 22 | – | – | – | – | – | –
C=C(C)[C@@H]1CC[C@]2(C(=O)N3CCCCC3)CC[C@]3(C)[C@H](CC[C@@H]4[C@@]5(C)CC=C(c6ccc(C(=O)O)cc6)C(C)(C)[C@@H]5CC[C@]43C)[C@@H]12 | – | – | – | 369 | 200 | 1580 | – | – | – | – | – | –
C=C(C)[C@@H]1CC[C@]2(C(=O)NCCN3CCCCC3)CC[C@]3(C)[C@H](CC[C@@H]4[C@@]5(C)CC=C(c6ccc(C(=O)O)cc6)C(C)(C)[C@@H]5CC[C@]43C)[C@@H]12 | – | 359 | 10 | 7 | 10000 | – | – | – | – | – | – | –
C=C(C)[C@@H]1CC[C@]2(C(=O)NCCN(C)CC(=O)O)CC[C@]3(C)[C@H](CC[C@@H]4[C@@]5(C)CC=C(c6ccc(C(=O)O)cc6)C(C)(C)[C@@H]5CC[C@]43C)[C@@H]12 | – | 160 | 51 | 10 | 200 | – | – | – | – | – | – | –
C=C(C)[C@@H]1CC[C@]2(C(=O)NCCO)CC[C@]3(C)[C@H](CC[C@@H]4[C@@]5(C)CC=C(c6ccc(C(=O)O)cc6)C(C)(C)[C@@H]5CC[C@]43C)[C@@H]12 | – | > 2000 | 41 | 7 | 7000 | 39 | – | – | – | – | – | –
C=C(C)[C@@H]1CC[C@]2(C(=O)NCC(N)=O)CC[C@]3(C)[C@H](CC[C@@H]4[C@@]5(C)CC=C(c6ccc(C(=O)O)cc6)C(C)(C)[C@@H]5CC[C@]43C)[C@@H]12 | – | 2000 | 32 | 6 | 9000 | – | – | – | – | – | – | –
C=C(C)[C@@H]1CC[C@]2(C(=O)NCC(C)(C)N)CC[C@]3(C)[C@H](CC[C@@H]4[C@@]5(C)CC=C(c6ccc(C(=O)O)cc6)C(C)(C)[C@@H]5CC[C@]43C)[C@@H]12 | – | 800 | 21 | 7 | 20000 | – | – | – | – | – | – | –
C=C(C)[C@@H]1CC[C@]2(C(=O)NCCOC)CC[C@]3(C)[C@H](CC[C@@H]4[C@@]5(C)CC=C(c6ccc(C(=O)O)cc6)C(C)(C)[C@@H]5CC[C@]43C)[C@@H]12 | – | – | 152 | 17 | 14000 | – | – | – | – | – | – | –
C=C(C)[C@@H]1CC[C@]2(C(=O)NCCN3CCOCC3)CC[C@]3(C)[C@H](CC[C@@H]4[C@@]5(C)CC=C(c6ccc(C(=O)O)cc6)C(C)(C)[C@@H]5CC[C@]43C)[C@@H]12 | – | 77 | 12 | 7 | 5000 | 28 | – | – | – | – | – | –
C=C(C)[C@@H]1CC[C@]2(C(=O)NCCN(CC(=O)O)CC(=O)O)CC[C@]3(C)[C@H](CC[C@@H]4[C@@]5(C)CC=C(c6ccc(C(=O)O)cc6)C(C)(C)[C@@H]5CC[C@]43C)[C@@H]12 | – | > 2000 | > 2000 | > 2000 | > 20000 | – | – | – | – | – | – | –
C=C(C)[C@@H]1CC[C@]2(C(=O)NCCCN(C)C)CC[C@]3(C)[C@H](CC[C@@H]4[C@@]5(C)CC=C(c6ccc(C(=O)O)cc6)C(C)(C)[C@@H]5CC[C@]43C)[C@@H]12 | – | 50 | 9 | 2 | 500 | 3 | 0.116 | > 2 | > 2 | 8.3 | 36 | –
C=C(C)[C@@H]1CC[C@]2(C(=O)NCCN(C(C)C)C(C)C)CC[C@]3(C)[C@H](CC[C@@H]4[C@@]5(C)CC=C(c6ccc(C(=O)O)cc6)C(C)(C)[C@@H]5CC[C@]43C)[C@@H]12 | – | 69 | 13 | 4 | 3000 | – | 1.31 | > 2 | > 2 | 4.3 | 302 | –
C=C(C)[C@@H]1CC[C@]2(C(=O)O)CC[C@]3(C)[C@H](CC[C@@H]4[C@@]5(C)CC[C@H](OC(=O)CC(C)(C)C(=O)O)C(C)(C)[C@@H]5CC[C@]43C)[C@@H]12 [BEVIRIMAT] | – | > 10000 | – | – | – | – | – | – | – | – | – | 40
